Experiments:
[1] = tested on: PSMA(−) PC3 flu cells; assay: Cell uptake in PSMA(−) PC3 flu cells; format: cell-based, human
[2] = Blood analysis and necropsy after radiotherapy; format: in vivo, NOD/SCID mice
Procedure: A pilot treatment study using NOD/SCID mice (n=10 per group) bearing PSMA+ PC3 PIP tumors with a single intravenous dose of 111 MBq (3 mCi) of agents ^177Lu-PSMA-617, ^177Lu-1, ^177Lu-3 and ^177Lu-5 and the control group (with saline treatment) were performed (Table 8). Volume of the all control group mice reached >5-fold of their initial tumor volume within 14 days. Mouse euthanized for treated group within 4 weeks of post-injection was mainly due to sudden body weight loss and not related to tumor growth. […] The difference among treatment groups was statistically significant (P=0.002) by the log-rank test compared to the untreated group. […] After 8-weeks, three mice from each treated group were used for detailed blood analysis and necropsy study. All animals underwent radiotherapy study had normal creatinine (0.3-0.4 mg/dL) and blood urea nitrogen levels. […] Additionally, a significant lowering of platelet for all three treated mice from ^177Lu-PSMA-617 compared control group and other treated groups.
Significant and concerning changes were identified in testes, and lacrimal grands primarily (FIG. 25) for all treated groups. […] Parotid glands, usually adjacent to exorbital lacrimal gland, are conspicuously spared and there were mild changes in the group treated ^177Lu-PSMA-617. […] T lymphoblastic lymphoma is accelerated by irradiation and some carcinogens, and is associated with interactions of endogenous retroviruses/retroelements in NOD/SCID mouse strains. […] The cells are large up to 25 μm, with very large nuclei (for a mouse) usually 2-3 nucleoli, and a high mitotic rate. Testis and lacrimal gland degenerative changes indicate that this animal did receive a treatment similar to other treated mice.
Antitumor efficacy studies were performed in PC3 PIP flank tumor growth delay model to evaluate the therapeutic efficacy of a single dose intravenous injection of ^177Lu-L1, ^177Lu-L3, ^177Lu-L5 and ^177Lu-PSMA-617 vs. saline. This was a head-to-head comparison study and same batch of tumor-bearing mice and radioactivity. The study was commenced 14-18 days post-inoculation of the xenografts, when all the mice had tumor volume of about ˜60-85 mm^3 (Table 8). All the living mice were monitored for 8 weeks to monitor the growth delay. Mice body weight and tumor volume were monitored every 3 days throughout the experiment. Endpoint criteria defined by the institute ACUC was weight loss≥15%, a tumor volume>1800 mm^3, active ulceration of the tumor or abnormal behavior indicating pain or unease. After 8-weeks, three mice from each group were submitted for detail necropsy and blood analysis. Mice group treated with ^177Lu-1 and ^177Lu-PSMA-617 were continued to monitor until the endpoint. These definitions were also used for Kaplan-Meier analysis. The probability of reaching 5 times the initial tumor volume was characterized using Kaplan-Meier curves, and comparison was performed using the log-rank test. The formula used for calculation of tumor volume was V=width^2×length/2. Toxicity of the ^177Lu-treatment groups after 8-weeks and in healthy CD-1 (n=3) mice treated with 111 MBq was evaluated by pathologic examination at the Johns Hopkins Pathology Core facility with serum metabolic panel, blood counts, and full necropsy including detailed histopathology of kidneys, salivary glands and lacrimal glands.

[3] = tested on: PSMA(+) PC3 PIP and PSMA(−) PC3 flu tumor xenografts; assay: Biodistribution of 177Lu compounds (Example 5); settings: 3 h post-injection
[4] = tested on: PC3-ML-Luc-PSMA; assay: Treatment study in micrometastatic PC3-ML-Luc-PSMA model; format: in vivo, mouse; settings: 37 MBq
Text: (middle) Changes in bodyweight during the treatment study. (bottom) Kaplan-Meier survival curve for treatment study in micrometastatic PC3-ML-Luc-PSMA model, median survival for 51 days (untreated) vs 52 days for ^177Lu-PSMA-617 (37 MBq) and 56 days for 225Ac-1 (37 kBq) and 79 days for 225Ac-1 (74 kBq);

[5] = tested on: PSMA(+) PC3 PIP cells; assay: Cell uptake, cell surface binding and internalization in PSMA(+) PC3 PIP cells; format: cell-based, human
[6] = tested on: PSMA+ PC3 PIP tumors; assay: Radiopharmaceutical therapy in PC3 PIP flank tumor growth delay model; format: in vivo, NOD/SCID mice
[7] = 111 MBq (3 mCi), after eight weeks, n=3

O=C([O-])CN1CCN(CC(=O)[O-])CCN(CC(=O)NCC2CCC(C(=O)N[C@@H](Cc3ccc4ccccc4c3)C(=O)NCCCC[C@H](NC(=O)N[C@@H](CCC(=O)O)C(=O)O)C(=O)O)CC2)CCN(CC(=O)[O-])CC1.[177Lu+3] (stereo partly shown) [^177Lu-PSMA-617, reference compound]
Cell uptake PC3 flu ([1]; 1 h): 0.1 ± 0.01 % incubated dose per 1 x 10^6 cells | Cell uptake PC3 flu ([1]; 2 h): 0.1 ± 0.0 % incubated dose per 1 x 10^6 cells | Cell uptake PC3 flu ([1]; 4 h): 0.1 ± 0.06 % incubated dose per 1 x 10^6 cells | Cell uptake PC3 flu ([1]; 24 h): 0.1 ± 0.01 % incubated dose per 1 x 10^6 cells | Albumin [2, 7]: 2.9 ± 0.2 g/dL | Blood urea nitrogen [2, 7]: 23.3 ± 2.5 mg/dL | Hematocrit [2, 7]: 42.9 ± 4.5% | Hemoglobin [2, 7]: 12.8 ± 1.0 g/dL | Lymphocytes [2, 7]: 0.7 ± 0.1 K/μL | Mean Corpuscular Value(MCV) [2, 7]: 52.2 ± 1.6 fL | Neutrophils [2, 7]: 3.5 ± 3.8 K/μL | Platelets [2, 7]: 916.0 ± 141.6 K/μL | Red blood cells [2, 7]: 8.2 ± 0.7 M/μL | Total protein [2, 7]: 5.5 ± 0.5 g/dL | White blood cells [2, 7]: 5.05 ± 4.1 K/μL | H&E pathology of testis ([2]; 111 MBq, after 8 weeks): most significant changes in testis | neutrophil counts ([2]; 111 MBq, after 8 weeks): up to 3.5±3.8 K/mL | Kidney uptake [3]: 9.81±6.54 % ID/g | median survival [4]: 52 days | Cell uptake PC3 PIP ([5]; 1 h): 42.2 ± 0.80 % incubated dose per 1 x 10^6 cells | PC3 PIP cell Int (internalization) ([5]; 1 h): 18.8 ± 1.2 % incubated dose per 1 x 10^6 cells | Blockade PC3 PIP ([5]; 1 h, ZJ43 10 μM): 0.1 ± 0.0 % incubated dose per 1 x 10^6 cells | total uptake within the PSMA(+) PC3 PIP cells ([5]; 1 h to 24 h): ~40 % of the incubated dose | Cell uptake PC3 PIP ([5]; 2 h): 44.6 ± 1. % incubated dose per 1 x 10^6 cells | PC3 PIP, line without name (position of cell internalization) ([5]; 2 h): 21.1 ± 0.9 % incubated dose per 1 x 10^6 cells | Cell uptake PC3 PIP ([5]; 4 h): 47.6 ± 1.13 % incubated dose per 1 x 10^6 cells | PC3 PIP cell int (internalization) ([5]; 4 h): 26.1 ± 1.0 % incubated dose per 1 x 10^6 cells | Cell uptake PC3 PIP ([5]; 24 h): 54.2 ± 0.21 % incubated dose per 1 x 10^6 cells | PC3 PIP cell int (internalization) ([5]; 24 h): 26.4 ± 0.8 % incubated dose per 1 x 10^6 cells | Median survival After 8 weeks post-treatment ([6]; 111 MBq): Not reached | Tumors above stated relative tumor growth after week 8 post-treatment (Vt/V0) ([6]; 111 MBq): one tumor > 4 | median survival ([6]; 111 MBq, followed to predefined end-point): 133 days | Tumor disappear (number of mice) ([6]; 111 MBq, week 8 post-treatment): disappear 5 | Average final body weight ([6]; single i.v. dose 111 MBq (3 mCi)): 24.6 ± 3.6 gram

Reference: US11478558B2, “Prostate-specific membrane antigen targeted high-affinity agents for endoradiotherapy of prostate cancer” (The Johns Hopkins University, priority 2017, dated 2022)
